Reference: article PMC9415015, “CK2 Inhibition and Antitumor Activity of 4,7-Dihydro-6-nitroazolo[1,5-a]pyrimidines” (Molecules, 2022)

Legend:
[1] = biological target: T1, human recombinant CK2α1 (Homo sapiens, UniProt P68400); test: CK2 ADP-Glo kinase assay; format: biochemical; conditions: for Effect on CK2 activity in initial screening (in words): initial screening at 50 μM
T1 construct: purchased Promega V4482
Description: Kinase activity was determined using the enzyme system CK2α1 (Promega V4482, Madison, WI, USA) and the ADP-Glo^TM kit (Promega V9101, Madison, WI, USA) in white 96-well plates (Nunc U96 Microwell 267350, Denmark). The reaction was carried out using 50 ng/well of N-GST labeled human recombinant CK2α1, 0.1 µg/µL bovine casein as a substrate, 10 μM ATP in 40 mM Tris buffer solution (pH 7.50) containing 20 mM MgCl2, 0.1 mg/mL of BSA, and 50 μM of DTT. Test compounds were added to 1.25% DMSO (final concentration 0.25%) and preincubated with kinase for 10 min. The reaction was carried out for 60 min at 25 °C in a thermostatically controlled PST-60HL shaker (Biosan. […], Latvia). ATP-dependent luminescence was measured at an integration time of 1000 ms using the Infinite M200 PRO microplate reader (Tecan. Austria). The ATP-competitive inhibitor Staurosporin (CAS 62996–74-1, Alfa Aesar J62837, 99+%) was used as a positive control. The experiments were performed in two parallels.

[2] = Solubility noted during the cytotoxicity study; conditions: cytotoxicity study limited because of it
[3] = test system: Rd cells; test: MTT test, embryonic rhabdomyosarcoma cells; format: cell-based, human; conditions: for Cytotoxicity index IC50 ± SE, Rd: MTT, 72 h incubation
Description: (§1) The studies were carried out on cultured cells of human glioblastoma (A-172, ATCC CRL 1620), human osteosarcoma (Hos, ATCC CRL 1543), human embryonic rhabdomyosarcoma (Rd, ATCC CRL 136), and human embryonic kidney 293 cells (Hek-293, ATCC CRL 1573) obtained from the Shared research facility “Vertebrate cell culture collection” (Institute of Cytology RAS, Saint-Petersburg, Russia). The cells were cultured using DMEM / F-12 medium containing 10% fetal bovine serum at 37°C, 5% CO2, and 98% humidity. Subculturing was performed using 0.25% trypsin solution when the culture reached ≥90% confluency.
(§2) The compounds were dissolved in DMSO. The solutions were diluted with DMEM/F-12 culture medium with 10% fetal bovine serum to the studied concentrations: 8, 16, 32, 64, 128, 256, 512, and 1024 µM. […] Cisplatin (cPt) was used as a positive control.
(§3) Cells were seeded in 96-well plates at a concentration of 4 × 10^3 cells per well. After 24 h, test compounds were added to the wells in a given concentration range. Then the cells were incubated for 72 h, after which a solution of MTT (3-(4,5-dimethyl-2-thiazolyl)-2,5-diphenyl-2H-tetrazolium bromide) was added to the cultures at 20 µL (5 mg/mL) to the well. After 2.5 h, the medium was removed from the wells and 200 µL of a mixture of DMSO/i-PrOH 1/1 was added. Optical density was measured on a plate spectrophotometer at a wavelength of 570 nm.
(§4) Statistical data processing was carried out in the RStudio program (Version 1.4.1106 © […] RStudio, PBC, Boston, MA, USA) using the R package (version 4.1.2). The cytotoxicity index (IC50) was calculated by plotting dose–response curves using the “drc” package.

[4] = test system: tumor cells A-172, Rd, and Hos; test: MTT test, tumor cell lines together; format: cell-based; conditions: Homo sapiens, A 172, MTT, across A-172, Rd, 50 µM bound holds 'mostly'
Description: as §1, §2
(§5) Cells were seeded in 96-well plates at a concentration of 4 × 10^3 cells per well. After 24 h, test compounds were added to the wells in a given concentration range. […] Optical density was measured on a plate spectrophotometer at a wavelength of 570 nm.
as §4

[5] = test system: A-172 cells; test: MTT test, glioblastoma cells; format: cell-based, human; conditions: for Cytotoxicity index IC50 ± SE, A-172: MTT, 72 h incubation
Description: as §1, §2, §3, §4

[6] = test system: Hos cells; test: MTT test, osteosarcoma cells; format: cell-based, human; conditions: for Cytotoxicity index IC50 ± SE, Hos: MTT, 72 h incubation
Description: as §1, §2, §3, §4

[7] = test system: Hek-293 cells; test: MTT test, human embryonic kidney cells; format: cell-based; conditions: 72 h incubation
Description: as §1, §2, §3, §4

[8] = test system: A-172, Rd, Hos and Hek-293 cells; test: MTT test, all four cell lines together; format: cell-based; conditions: Homo sapiens, read-out: IC50 in all cases
Description: as §1, §2, §5, §4

T1 sequence (P68400 whole entry): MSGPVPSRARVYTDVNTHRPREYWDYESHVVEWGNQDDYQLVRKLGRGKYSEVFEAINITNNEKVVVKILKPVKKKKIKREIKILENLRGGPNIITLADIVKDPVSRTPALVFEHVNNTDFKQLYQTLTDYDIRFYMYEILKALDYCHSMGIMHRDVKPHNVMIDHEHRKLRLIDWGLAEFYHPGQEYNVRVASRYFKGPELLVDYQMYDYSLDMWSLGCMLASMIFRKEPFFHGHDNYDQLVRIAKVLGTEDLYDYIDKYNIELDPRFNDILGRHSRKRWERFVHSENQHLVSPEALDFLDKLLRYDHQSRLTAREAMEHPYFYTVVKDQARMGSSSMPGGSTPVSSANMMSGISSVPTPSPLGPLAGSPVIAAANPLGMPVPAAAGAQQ

**Q.** With O=[N+]([O-])C1=CNc2ccnn2C1c1ccccc1 (stereo not shown) [Compound 5a, 6-Nitro-7-phenyl-4,7-dihydropyrazolo[1,5-a]pyrimidine] as the compound, how does the “Effect on CK2 activity in initial screening (in words)” value [1] read?
**A.** paradoxically enhance CK2 activity

**Q.** What about the “Solubility (in words)” value [2] of the same compound?
**A.** low solubility

**Q.** Which results are given for CC1=C([N+](=O)[O-])C(c2ccccc2)n2nc(C(F)(F)F)nc2N1 (stereo not shown) [Compound 6d, 5-Methyl-6-nitro-7-phenyl-2-trifluoromethyl-4,7-dihydro-1,2,4-triazolo[1,5-a]pyrimidine]?
**A.** Effect on CK2 activity in initial screening (in words) [1]: paradoxically enhance CK2 activity; Cytotoxicity index IC50 ± SE, Rd [3]: 37.28 ± 3.77 µM; Selectivity ratio SR (RD) ([3]; normal/cancer cell (Hek-293 vs Rd)): 1.3; melting point: 233 to 235 °C; IC50 [4]: ≤ 50 µM; Cytotoxicity index IC50 ± SE, A-172 [5]: 27.49 ± 1.67 µM; Selectivity ratio SR (A-172) ([5]; normal/cancer cell (Hek-293 vs A-172)): 1.8; Cytotoxicity index IC50 ± SE, Hos [6]: 23.31 ± 1.84 µM; Selectivity ratio SR (HOS) ([6]; normal/cancer cell (Hek-293 vs Hos)): 2.1; Cytotoxicity index IC50 ± SE, Hek-293 [7]: 50.07 ± 4.43 µM

**Q.** What does the source list for CC1=C([N+](=O)[O-])C(c2ccc([N+](=O)[O-])cc2)n2nccc2N1 (stereo not shown) [Compound 5c, 6-Nitro-5-methyl-7-(4ʹ-nitrophenyl)-4,7-dihydropyrazolo[1,5-a]pyrimidine]?
**A.** Effect on CK2 activity in initial screening (in words) [1]: paradoxically enhance CK2 activity; Solubility (in words) [2]: low solubility

**Q.** For CCC1=C([N+](=O)[O-])C(c2ccc(OC)cc2)n2ncc(C#N)c2N1 (stereo not shown) [Compound 5i, 3-Cyano-5-ehtyl-6-Nitro-7-(4ʹ-metoxyphenyl)-4,7-dihydropyrazolo[1,5-a]pyrimidine], which inhibition at 50 µM ([1]; 50 μM compound, 10 μM ATP, n.a. = not active, read-out: CK2 Inhibition at 50 μM, m ± SD (%)) is on record?
**A.** 3.66 ± 37.6%

**Q.** And the “Cytotoxicity index IC50 ± SE, Rd” value [3]?
**A.** 105.10 ± 10.70 µM

**Q.** What about the melting point of the same compound?
**A.** 249 °C (dec.)

**Q.** What about the “Cytotoxicity index IC50 ± SE, A-172” value [5] of the same compound?
**A.** 145.19 ± 8.96 µM

**Q.** What about the “Cytotoxicity index IC50 ± SE, Hos” value [6] of the same compound?
**A.** 88.44 ± 5.85 µM

**Q.** What about the “Cytotoxicity index IC50 ± SE, Hek-293” value [7] of the same compound?
**A.** 69.52 ± 8.69 µM

**Q.** Which “Cytotoxicity index IC50 ± SE, Rd” value [3] does the source give for CCC1=C([N+](=O)[O-])C(c2ccc(O)c(OC)c2)n2ncc(C#N)c2N1 (stereo not shown) [Compound 5j, 3-Cyano-5-Ethyl-6-nitro-7-(3ʹ-methoxy-4ʹ-hydroxyphenyl)-4,7-dihydropyrazolo[1,5-a]pyrimidine] here?
**A.** 673.44 ± 20.70 µM

**Q.** What about the IC50 [8] of the same compound?
**A.** > 400 µM

**Q.** And the “Cytotoxicity index IC50 ± SE, A-172” value [5]?
**A.** 566.09 ± 17.12 µM

**Q.** And the “Cytotoxicity index IC50 ± SE, Hos” value [6]?
**A.** 522.38 ± 16.16 µM

**Q.** What about the “Cytotoxicity index IC50 ± SE, Hek-293” value [7] of the same compound?
**A.** 581.39 ± 43.90 µM

**Q.** With O=[N+]([O-])C1=CNc2ncnn2C1c1ccccc1 (stereo not shown) [Compound 6a, 6-Nitro-7-phenyl-4,7-dihydro-1,2,4-triazolo[1,5-a]pyrimidine] as the compound, how does the “Effect on CK2 activity in initial screening (in words)” value [1] read?
**A.** paradoxically enhance CK2 activity

**Q.** And the “Cytotoxicity index IC50 ± SE, Rd” value [3]?
**A.** 448.21 ± 22.53 µM

**Q.** What about the IC50 [8] of the same compound?
**A.** > 400 µM

**Q.** What about the “Cytotoxicity index IC50 ± SE, A-172” value [5] of the same compound?
**A.** 434.08 ± 18.02 µM

**Q.** What about the “Cytotoxicity index IC50 ± SE, Hos” value [6] of the same compound?
**A.** 542.85 ± 21.45 µM

**Q.** What about the “Cytotoxicity index IC50 ± SE, Hek-293” value [7] of the same compound?
**A.** 1131.79 ± 77.86 µM
